Test results taken from publication PMC10748408 (Frontiers in Oncology, 2023).

Assays:
[1] = tested on: MDA-MB-231 cells; experiment: Apoptotic cells (Annexin-FITC/PI flow cytometry) with or without CLEC12A overexpression; format: cell-based, Human; settings: MDA-MB-231, non-transfected, ART + (5 µM, 24 hours); without ART 0.5%
Protocol: (§1) Cells, isolated from normal and treated/untreated tumor tissues by collagenase-hyaluronidase digestion, were washed with Ca^2+-free PBS and stained with Annexin V binding buffer (1X). The cells were then incubated with Annexin V-FITC and propidium iodide (PI) for 15 minutes at 37°C. Cells were eventually analyzed on the BD FACS Aria III (Alexa Fluor at 488nm and PE at 570 nm, respectively). The percentage of apoptotic and necrotic cells were analyzed using the […]™ software (BD Biosciences, USA; [37]). For transfection, MDA-MB-231 and 4T1 cells were grown in a 6-well plate until they reached 70% confluency. CLEC12A-pcDNA recombinant/empty DNA plasmid (2500ng) or pcDNA empty vector (2500ng) was transfected into cells using 5μl Lipofectamine® 2000 reagent. […] Finally, transfection efficiency was confirmed by western blot analysis ([42]).

[2] = tested on: MDA-MB-231 cells; experiment: Cell viability assay (MTT); format: cell-based; settings: Homo sapiens, 24 hours
Protocol: Human triple negative breast cancer cells MDA-MB-231 and murine mammary cancer cells 4T1 were obtained from National Centre for Cell Sciences, Pune, India. Cells were maintained in complete Dulbecco’s Modified Eagle Medium (DMEM) supplemented with 10% FBS and 1% penicillin/streptomycin, and incubated at 37°C in 5% CO2 - 95% humidified atmosphere. Cells in log phase of growth was used for all subsequent experiments ([21]). 1 x 10^5 viable cells were seeded in a 96-well plate. […] Following treatment, wells were washed to remove the media and 100 µl of PBS was added to each well. Finally, 10 µl of MTT solution (5 mg/mL in PBS) was added and incubated at 37°C for 3 hours. The purple crystals formed were dissolved in 150 µl of DMSO. Absorbance was measured at 570 nm in a multi-plate reader Varioskan™ Lux (Thermo Fisher Scientific, USA; [21]).

[3] = tested on: tumor cells; experiment: Autophagic cells (acridine orange, flow cytometry) in cells isolated from tumors; format: in vivo, BALB/c mice; settings: tumor-bearing mice, T+6.25 to T+50 mg/kg, vs Tumor
Protocol: Acidic vesicular organelles (AVOs) were examined by microscopy and quantified using flow cytometry of acridine orange (AO) stained cells. Cells were isolated from tissues by collagenase-hyaluronidase digestion and stained with AO (1µg/ml) by incubation at 37°C for 15 minutes in dark. Following subsequent PBS washes, the cells were observed under Olympus laser-scanning confocal microscope (FV-10 ASW 3.0 viewer image browser) at 450 and 593 nm to determine AVOs.

[4] = tested on: 4T1 cells; experiment: Apoptotic cells (Annexin-FITC/PI flow cytometry) with or without CLEC12A overexpression; format: cell-based, murine; settings: 4T1, non-transfected, ART + (1 µM, 24 hours); without ART 0.2%
Protocol: as §1

[5] = tested on: TNF-α, IL-1β, IL-6 and IL-12; experiment: Serum pro-inflammatory cytokine ELISA; format: in vivo, BALB/c mice; settings: ART-treated vs untreated tumor-bearing mice
Protocol: Serum isolated from experimental mice, and conditioned media collected from MDA-MB-231 and 4T1 cells, were used to estimate levels of cytokines by ELISA. To prepare the conditioned media, the cell culture medium containing serum was discarded and cells were washed with serum-free DMEM media. […] After incubation, the conditioned media was collected for cytokine analysis. As per the manufacturer’s protocol, samples were added to the multi-analyte ELISArray wells, coated with antibodies for TNF-α, IL-1β, IL-6 and IL-12 and incubated for 2 hours. Detection antibodies were added, followed by 30 minutes incubation with avidin-HRP. After incubating with the developing solution, stop solution (Qiagen) was added to terminate the reaction ([39]). The O.D. was measured at 450 and 570 nm in an ELISA plate reader (Varioskan Lux, Thermo Fisher; USA).

[6] = tested on: 4T1 mammary tumors; experiment: Tumor size, weight and volume in 4T1 mammary tumor model; format: in vivo, BALB/c mice; settings: 12.5, 25 and 50 mg/kg body weight of ART vs untreated tumor-bearing mice
Protocol: Mouse mammary 4T1 cells in passage numbers between 7 and 12 (10^4 cells/ml in 50 µl PBS) were injected into the inguinal 4th mammary fat pad of BALB/c mice ([23], [24]). Normal mice received an equal volume of sterile PBS. A palpable tumor was allowed to develop for 14 days ([24]). […] Normal (mammary fat pad surrounding the 4th inguinal mammary pad), mammary tumor, and organs like lungs, kidney, liver, and blood were collected at the end of the experimental schedule. Body weight and tumor volume of each mouse were recorded daily during the tenure of the experiment. Tumor volume was calculated using the following formula: length (mm) × width^2 (mm) × 0.52 ([25]).

[7] = tested on: cells isolated from the liver, kidney and lungs; experiment: MTT viability of cells isolated from organs of treated mice; format: in vivo, BALB/c mice; settings: MTT assay
Protocol: Tissue samples were immersed in 9 parts of serum-free DMEM and 1 part of enzyme cocktail. Digestion was performed at 37°C for 4 hours. Isolated cells were washed well to remove any remaining enzyme, resuspended in ice-cold PBS and filtered through a single cell mesh to dissociate cell clumps. Cell viability was checked using trypan blue dye exclusion test before using the cells for further assays ([21]). 1 x 10^5 viable cells were seeded in a 96-well plate. […] Following treatment, wells were washed to remove the media and 100 µl of PBS was added to each well. Finally, 10 µl of MTT solution (5 mg/mL in PBS) was added and incubated at 37°C for 3 hours. The purple crystals formed were dissolved in 150 µl of DMSO. Absorbance was measured at 570 nm in a multi-plate reader Varioskan™ Lux (Thermo Fisher Scientific, USA; [21]).

`C[C@@H]1CC[C@H]2[C@@H](C)C(=O)O[C@@H]3O[C@@]4(C)CC[C@@H]1[C@]32OO4` [ART, Artemisinin] was tested, and the “percentage of apoptotic cells” value [1] was 22%, the IC50 [2] was 5 µM and the “percentage of autophagic cells” value [3] was “dose-dependent decrease”. The “percentage of apoptotic cells” value [4] was 11%, the “levels of pro-inflammatory cytokines (TNF-α, IL-1β, IL-6 and IL-12)” value [5] was “dose-dependent reduction” and the “tumor weight and volume” value [6] was “Significant decrease”. For the same compound, the “viability of cells isolated from the liver, kidney and lungs” value ([7]; normal mice treated with ART) was “no loss of viability” and the “viability of cells isolated from the liver, kidney and lungs” value ([7]; tumor-bearing mice, increasing doses of ART) was “significantly increased cell viability”.
